Results from patent publication US11304929B2, “Tosylacetate based compounds and derivatives thereof as PHGDH inhibitors” (priority 2017, dated 2022).
Like-named read-outs stand apart in the source and are kept apart here.

Experiments:
PHGDH = PHGDH (Homo sapiens (Human), UniProt O43175); assay: 3-Phosphoglycerate Dehydrogenase (PHGDH) Fluorescence Intensity Assay, run at two NAD/3-PG ratios: PHGDH_HIGH_NAD/3-PG (250 μM NAD/500 μM 3-PG) and PHGDH_500_NAD/3-PG (500 μM NAD/500 μM 3-PG); type: biochemical
MDA-MB-468 = assay: 13C3 Serine Assay MDA-MB-468 (13C3 serine levels by LC/MS/MS); type: cell-based; conditions: Homo sapiens
[1] = 250 μM NAD/500 μM 3-PG, read-out: IC50 (PHGDH_HIGH_NAD/3-PG)
[2] = MDA-MB-468 cells, 13C3 serine levels by LC/MS/MS, read-out: IC50 (13CSERINE)
[3] = 500 μM NAD/500 μM 3-PG, read-out: IC50 (PHGDH_500_NAD/3-PG)
[4] = MDA-MB-468, read-out: IC50 (13CSERINE)

Sequence of PHGDH (O43175 2-533 limits assumed): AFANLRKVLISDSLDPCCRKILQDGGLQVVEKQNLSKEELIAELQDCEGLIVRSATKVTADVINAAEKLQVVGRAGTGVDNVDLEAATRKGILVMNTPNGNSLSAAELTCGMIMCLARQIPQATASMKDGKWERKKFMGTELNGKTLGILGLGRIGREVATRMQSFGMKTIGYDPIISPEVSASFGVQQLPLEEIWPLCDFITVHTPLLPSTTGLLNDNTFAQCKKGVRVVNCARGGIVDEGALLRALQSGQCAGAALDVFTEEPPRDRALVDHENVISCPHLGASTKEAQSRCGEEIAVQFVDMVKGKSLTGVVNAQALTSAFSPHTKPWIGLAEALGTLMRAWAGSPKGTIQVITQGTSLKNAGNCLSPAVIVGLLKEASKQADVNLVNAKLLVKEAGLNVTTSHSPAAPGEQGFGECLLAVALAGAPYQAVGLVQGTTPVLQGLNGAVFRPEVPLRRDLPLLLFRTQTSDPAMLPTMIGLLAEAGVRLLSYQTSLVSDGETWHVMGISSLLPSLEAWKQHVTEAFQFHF

Row | Structure (SMILES) | IC50 (PHGDH; [1]) [nM] | IC50 (MDA-MB-468; [2]) [nM] | IC50 (PHGDH; [3]) [nM] | IC50 (MDA-MB-468; [4]) [nM]
1 | COC(=O)CS(=O)(=O)c1ccc([C@@H](C)NC(=O)c2cc3c(Cl)c(Cl)c(C)cc3n2C)cc1 [Example 01-001, methyl 2-{4-[(1R)-1-[(4,5-dichloro-1,6-dimethyl-1H-indol-2-yl)formamido]ethyl]benzenesulfonyl}acetate] | 441 | 7 |  | 
2 | CCOC(=O)CS(=O)(=O)c1ccc([C@@H](CO)NC(=O)c2cc3c(Cl)c(Cl)c(C)cc3n2C)cc1 [Example 01-002, ethyl 2-{4-[(1S)-1-[(4,5-dichloro-1,6-dimethyl-1H-indol-2-yl)formamido]-2-hydroxyethyl]benzenesulfonyl}acetate] | 169 |  | 258 | 2.9
3 | COC(=O)CS(=O)(=O)c1ccc([C@@H](C)NC(=O)c2cc3c(Cl)cc(-c4cnn(C)c4)cc3n2C)cc1 [Example 01-003, methyl 2-{4-[(1R)-1-{[4-chloro-1-methyl-6-(1-methyl-1H-pyrazol-4-yl)-1H-indol-2-yl]formamido}ethyl]benzenesulfonyl}acetate] | 905 | 109 |  | 
4 | CCOC(=O)CS(=O)(=O)c1ccc([C@@H](C)NC(=O)c2cc3c(Cl)cc(C)cc3n2C)cc1 [Example 01-004, ethyl 2-{4-[(1R)-1-[(4-chloro-1,6-dimethyl-1H-indol-2-yl)formamido]ethyl]benzenesulfonyl}acetate] | 964 | 29.3 |  | 
5 | CCOC(=O)CS(=O)(=O)c1ccc([C@@H](CO)NC(=O)c2cc3c(Cl)cc(C)cc3n2C)cc1 [Example 01-005, ethyl 2-{4-[(1S)-1-[(4-chloro-1,6-dimethyl-1H-indol-2-yl)formamido]-2-hydroxyethyl]benzenesulfonyl}acetate] | 223 | 3.3 |  | 
6 | COC(=O)CS(=O)(=O)c1ccc([C@@H](C)NC(=O)c2cc3c(Cl)c(Cl)c(C)nc3n2C)cc1 [Example 01-006, methyl 2-{4-[(1R)-1-({4,5-dichloro-1,6-dimethyl-1H-pyrrolo[2,3-b]pyridin-2-yl}formamido)ethyl]benzenesulfonyl}acetate] | 485 | 88.8 |  | 
7 | COC(=O)CS(=O)(=O)c1ccc([C@@H](CO)NC(=O)c2cc3c(Cl)c(Cl)c(C)cc3n2C)cc1 [Example 01-007, methyl 2-{4-[(1S)-1-[(4,5-dichloro-1,6-dimethyl-1H-indol-2-yl)formamido]-2-hydroxyethyl]benzenesulfonyl}acetate] | 121 | 5 |  | 
8 | CCOC(=O)CS(=O)(=O)c1ccc([C@@H](C)NC(=O)c2cc3c(Cl)cc(-c4cnn(C)c4)cc3n2C)cc1 [Example 01-009, ethyl 2-{4-[(1R)-1-{[4-chloro-1-methyl-6-(1-methyl-1H-pyrazol-4-yl)-1H-indol-2-yl]formamido}ethyl]benzenesulfonyl}acetate] | 815 | 44.1 |  | 
9 | CC(C)OC(=O)CS(=O)(=O)c1ccc([C@@H](C)NC(=O)c2cc3c(Cl)cc(-c4cnn(C)c4)cc3n2C)cc1 [Example 01-011, propan-2-yl 2-{4-[(1R)-1-{[4-chloro-1-methyl-6-(1-methyl-1H-pyrazol-4-yl)-1H-indol-2-yl]formamido}ethyl]benzenesulfonyl}acetate] | 1930 | 489 |  | 
10 | COC(=O)CS(=O)(=O)c1ccc([C@@H](C)NC(=O)c2cc3c(Cl)cc(C)cc3n2C)cc1 [Example 01-012, methyl 2-{4-[(1R)-1-[(4-chloro-1,6-dimethyl-1H-indol-2-yl)formamido]ethyl]benzenesulfonyl}acetate] | 412 | 52.5 |  | 
11 | COC(=O)CS(=O)(=O)c1ccc([C@@H](CO)NC(=O)c2cc3c(Cl)cc(C)cc3n2C)cc1 [Example 01-013, methyl 2-{4-[(1S)-1-[(4-chloro-1,6-dimethyl-1H-indol-2-yl)formamido]-2-hydroxyethyl]benzenesulfonyl}acetate] | 87 |  |  | 8.3
12 | CCOC(=O)CS(=O)(=O)c1ccc([C@@H](C)NC(=O)c2cc3c(Cl)c(Cl)c(C)nc3n2C)cc1 [Example 01-016, ethyl 2-{4-[(1R)-1-({4,5-dichloro-1,6-dimethyl-1H-pyrrolo[2,3-b]pyridin-2-yl}formamido)ethyl]benzenesulfonyl}acetate] | 1090 | 72.1 |  | 
13 | Cc1cc2c(cc(C(=O)N[C@H](CO)c3ccc(S(=O)(=O)CC(=O)OC(C)C)cc3)n2C)c(Cl)c1Cl [Example 01-021, propan-2-yl 2-{4-[(1S)-1-[(4,5-dichloro-1,6-dimethyl-1H-indol-2-yl)formamido]-2-hydroxyethyl]benzenesulfonyl}acetate] | 463 | 12.6 |  | 
14 | COC(=O)CS(=O)(=O)c1ccc([C@@H](CO)NC(=O)c2cc3c(Cl)c(Cl)c(C)nc3n2C)cc1 [Example 01-023, methyl 2-{4-[(1S)-1-({4,5-dichloro-1,6-dimethyl-1H-pyrrolo[2,3-b]pyridin-2-yl}formamido)-2-hydroxyethyl]benzenesulfonyl}acetate] | 216 | 0.8 |  | 
15 | CC(C)OC(=O)CS(=O)(=O)c1ccc([C@@H](C)NC(=O)c2cc3cc(Cl)c(-c4cnn(CCN5CCOCC5)c4)cc3n2C)cc1 [Example 01-026, propan-2-yl 2-{4-[(1R)-1-[(5-chloro-1-methyl-6-{1-[2-(morpholin-4-yl)ethyl]-1H-pyrazol-4-yl}-1H-indol-2-yl)formamido]ethyl]benzenesulfonyl}acetate] | 1350 | 35.9 |  | 
16 | COC(=O)CS(=O)(=O)c1ccc([C@@H](C)NC(=O)c2cc3cc(Cl)c(-c4cnn(CCN5CCOCC5)c4)cc3n2C)cc1 [Example 01-027, methyl 2-{4-[(1R)-1-[(5-chloro-1-methyl-6-{1-[2-(morpholin-4-yl)ethyl]-1H-pyrazol-4-yl}-1H-indol-2-yl)formamido]ethyl]benzenesulfonyl}acetate] | 248 | 34.2 |  | 
17 | CCOC(=O)CS(=O)(=O)c1ccc([C@@H](CO)NC(=O)c2cc3c(F)c(F)c(C)cc3n2C)cc1 [Example 01-028, ethyl 2-{4-[(1S)-1-[(4,5-difluoro-1,6-dimethyl-1H-indol-2-yl)formamido]-2-hydroxyethyl]benzenesulfonyl}acetate] | 267 | 7.3 | 525 | 
18 | COC(=O)CS(=O)(=O)c1ccc([C@@H](C)NC(=O)c2cc(-c3ccc(F)cc3)nn2C)cc1 [Example 02-001, methyl 2-{4-[(1R)-1-{[3-(4-fluorophenyl)-1-methyl-1H-pyrazol-5-yl]formamido}ethyl]benzenesulfonyl}acetate] | 1260 | 32.8 |  | 
19 | CCOC(=O)CS(=O)(=O)c1ccc([C@@H](C)NC(=O)c2cc(-c3ccc(F)cc3)nn2C)cc1 [Example 02-004, ethyl 2-{4-[(1R)-1-{[3-(4-fluorophenyl)-1-methyl-1H-pyrazol-5-yl]formamido}ethyl]benzenesulfonyl}acetate] | 3100 | 62.1 |  | 
20 | CCOC(=O)CS(=O)(=O)c1ccc([C@@H](C)NC(=O)c2cc(-c3cccc4cc[nH]c34)nn2C)cc1 [Example 02-005, ethyl 2-{4-[(1R)-1-{[3-(1H-indol-7-yl)-1-methyl-1H-pyrazol-5-yl]formamido}ethyl]benzenesulfonyl}acetate] | 3000 | 64.8 |  | 
21 | COC(=O)CS(=O)(=O)c1ccc([C@@H](CO)NC(=O)c2cc(-c3ccccc3)nn2C)cc1 [Example 02-007, methyl 2-{4-[(1S)-2-hydroxy-1-[(1-methyl-3-phenyl-1H-pyrazol-5-yl)formamido]ethyl]benzenesulfonyl}acetate] | 4340 | 167 |  | 
22 | CC(C)OC(=O)CS(=O)(=O)c1ccc([C@@H](C)NC(=O)c2cc(-c3ccc(F)cc3)nn2C)cc1 [Example 02-008, propan-2-yl 2-{4-[(1R)-1-{[3-(4-fluorophenyl)-1-methyl-1H-pyrazol-5-yl]formamido}ethyl]benzenesulfonyl}acetate] | 4840 | 68.4 |  | 
23 | Cc1cc(Cl)c2cc(C(=O)N[C@H](C)c3ccc(S(=O)(=O)C(C)(C)C(N)=O)cc3)n(C)c2c1 [Example 15-007, N-[(1R)-1-[4-(1-carbamoyl-1-methylethanesulfonyl)phenyl]ethyl]-4-chloro-1,6-dimethyl-1H-indole-2-carboxamide] |  | 3220 |  | 
24 | Cc1cc(Cl)c2cc(C(=O)N[C@H](C)c3ccc(S(=O)(=O)CC(=O)CS(=O)(=O)c4ccc([C@@H](C)NC(=O)c5cc6c(Cl)cc(C)cc6n5C)cc4)cc3)n(C)c2c1 [Example 15-008, 4-chloro-N-[(1R)-1-[4-(3-{4-[(1R)-1-[(4-chloro-1,6-dimethyl-1H-indol-2-yl)formamido]ethyl]benzenesulfonyl}-2-oxopropanesulfonyl)phenyl]ethyl]-1,6-dimethyl-1H-indole-2-carboxamide] |  | 11.9 |  | 
25 | Cc1cc(Cl)c2cc(C(=O)N[C@H](C)c3ccc(S(=O)(=O)CC(=O)N(C)C)cc3)n(C)c2c1 [Example 15-009, 4-chloro-N-[(1R)-1-{4-[(dimethylcarbamoyl)methanesulfonyl]phenyl}ethyl]-1,6-dimethyl-1H-indole-2-carboxamide] |  | 3390 |  | 
26 | CCOC(=O)CS(=O)(=O)c1ccc([C@@H](C)NC(=O)c2cc(-c3ccccc3)n(C)n2)cc1 [Example 15-010, ethyl 2-{4-[(1R)-1-[(1-methyl-5-phenyl-1H-pyrazol-3-yl)formamido]ethyl]benzenesulfonyl}acetate] |  | 1300 |  | 
27 | Cc1cc(Cl)c2cc(C(=O)N[C@H](C)c3ccc(S(=O)(=O)CC(=O)OCCOC(=O)CS(=O)(=O)c4ccc([C@@H](C)NC(=O)c5cc6c(Cl)cc(C)cc6n5C)cc4)cc3)n(C)c2c1 [Example 15-011, 2-[(2-{4-[(1R)-1-[(4-chloro-1,6-dimethyl-1H-indol-2-yl)formamido]ethyl]benzenesulfonyl}acetyl)oxy]ethyl 2-{4-[(1R)-1-[(4-chloro-1,6-dimethyl-1H-indol-2-yl)formamido]ethyl]benzenesulfonyl}acetate] |  | 249 |  | 
